Measured values as given in patent publication US12098151B2 (priority 2018, dated 2024).
Read-outs that look alike come from different tables or passages of the source.

How the values were obtained:
[1] = system: Junin virus; assay: microbe, parasite or virus in culture; format: cell-based
[2] = system: LCMV; assay: microbe, parasite or virus in culture; format: cell-based, lymphocytic choriomeningitis virus (LCMV)
[3] = Mammarenavirus juninense, HEK-293T, 96 h
[4] = Mammarenavirus choriomeningitidis, KB, 96 h

SMILES	EC50 [1, 3] [nM]	EC50 [2, 4] [nM]	further results
CC(C)N1CN(C2c3ccccc3C3C(c4ccccc42)C3(F)F)n2cc(C(=O)O)c(=O)c(O)c2C1=O (single isomer, unassigned) [III-010]	10	9.9	–
O=C(O)c1cn2c(c(O)c1=O)C(=O)N1CCOC[C@H]1N2[C@@H]1c2ccccc2SCc2c1ccc(F)c2F [Compound I-001]	–	–	EC50 ([1]; read-out: EC50): 111 nM; EC50 ([2]; read-out: EC50): 115 nM
C[C@@H](N1CN([C@H]2c3ccccc3CSc3ccccc32)n2cc(C(=O)O)c(=O)c(O)c2C1=O)C(F)(F)F [Compound I-004]	15	12	–
CCN1CN(C(c2ccccc2)c2ccccc2)n2cc(C(=O)O)c(=O)c(O)c2C1=O [Compound I-005]	28	53	–
CC1N(C)C(=O)c2c(O)c(=O)c(C(=O)O)cn2N1C(c1ccccc1)c1ccccc1 (centres unmarked) [Compound I-006]	36	136	–
CCN1C(=O)c2c(O)c(=O)c(C(=O)O)cn2C(C(c2ccccc2)c2ccccc2)N1CC (centres unmarked) [Compound I-007]	138	65	–
CN1CN(C(c2ccccc2)c2ccccc2)n2cc(C(=O)O)c(=O)c(O)c2C1=O [Compound I-008]	239	205	–
CN1C(=O)c2c(O)c(=O)c(C(=O)O)cn2C(C(c2ccccc2)c2ccccc2)N1C (centres unmarked) [Compound I-009]	405	143	–
CCN1CN(Cc2ccc(-c3ccccc3)cc2)n2cc(C(=O)O)c(=O)c(O)c2C1=O [Compound I-010]	579	328	–
CC1Nn2cc(C(=O)O)c(=O)c(O)c2C(=O)N1C (centres unmarked) [Compound I-011]	1670	1930	–
COCCN1C[C@H](C(c2ccccc2)c2ccccc2)n2cc(NC(=O)OC)c(=O)c(O)c2C1=O [Compound I-012]	3000	–	–
CC(C)N1CN(C2c3ccccc3CSc3ccccc32)n2cc(C(=O)O)c(=O)c(O)c2C1=O (centres unmarked) [Compound I-019]	–	–	EC50 [1]: 6.9 nM; EC50 [2]: 2.2 nM
O=C(O)c1cn2c(c(O)c1=O)C(=O)N(Cc1ccc(F)cc1F)C[C@@H]2C(c1ccccc1)c1ccccc1 [Compound I-020]	7.1	5.9	–
COCCN1C(=O)c2c(O)c(=O)c(C(=O)O)cn2N(C2c3ccccc3CCc3ccccc32)C1CCSC (centres unmarked) [Compound I-022]	10	1.6	–
O=C(O)c1cn2c(c(O)c1=O)C(=O)N(Cc1cccc(Cl)c1F)C[C@@H]2C(c1ccccc1)c1ccccc1 [Compound I-023]	11	2.2	–
CC(C)=CCN1C[C@H](C(c2ccccc2)c2ccccc2)n2cc(C(=O)O)c(=O)c(O)c2C1=O [Compound I-024]	12	14	–
O=C(O)c1cn2c(c(O)c1=O)C(=O)N(Cc1ccccn1)C[C@@H]2C(c1ccccc1)c1ccccc1 [Compound I-025]	13	5	–
O=C(O)c1cn2c(c(O)c1=O)C(=O)N(CC1CCCCO1)C[C@@H]2C(c1ccccc1)c1ccccc1 (some centres unmarked) [Compound I-026]	17	6.9	–
Cc1cc(CN2C[C@H](C(c3ccccc3)c3ccccc3)n3cc(C(=O)O)c(=O)c(O)c3C2=O)no1 [Compound I-027]	19	9.4	–
O=C(O)c1cn2c(c(O)c1=O)C(=O)N(CC1CC1)C[C@@H]2C(c1ccccc1)c1ccccc1 [Compound I-028]	40	13	–
CN1C[C@H](C2c3ccccc3CSc3ccccc32)n2cc(C(=O)O)c(=O)c(O)c2C1=O (some centres unmarked) [Compound I-029]	42	< 31	–

SMILES	EC50 [1, 3] [nM]	EC50 [2, 4] [nM]	further results
O=C(O)c1cn2c(c(O)c1=O)C(=O)N(Cc1cccnc1)C[C@@H]2C(c1ccccc1)c1ccccc1 [Compound I-030]	44	31	–
CCCC(C)N1C[C@H](C(c2ccccc2)c2ccccc2)n2cc(C(=O)O)c(=O)c(O)c2C1=O (some centres unmarked) [Compound I-031]	45	20	–
CCCN1C[C@H](C(c2ccccc2)c2ccccc2)n2cc(C(=O)O)c(=O)c(O)c2C1=O [Compound I-032]	64	18	–
CCC(C)N1C[C@H](C(c2ccccc2)c2ccccc2)n2cc(C(=O)O)c(=O)c(O)c2C1=O (some centres unmarked) [Compound I-033]	68	15	–
O=C(O)c1cn2c(c(O)c1=O)C(=O)N(CC1CCOCC1)C[C@@H]2C(c1ccccc1)c1ccccc1 [Compound I-034]	68	32	–
CC(C)OCCN1C[C@H](C(c2ccccc2)c2ccccc2)n2cc(C(=O)O)c(=O)c(O)c2C1=O [Compound I-035]	71	< 6	–
COCCN1C(=O)c2c(O)c(=O)c(C(=O)O)cn2C[C@H]1C(c1ccccc1)c1ccccc1 [Compound I-036]	74	69	–
CC(C)N1C[C@H](C(c2ccccc2)c2ccccc2)n2cc(C(=O)O)c(=O)c(O)c2C1=O [Compound I-037]	82	24	–
CCOCCN1C[C@H](C(c2ccccc2)c2ccccc2)n2cc(C(=O)O)c(=O)c(O)c2C1=O [Compound I-038]	148	28	–
COCCN1C[C@H](C(c2ccccc2)c2ccccc2)n2cc(C(=O)O)c(=O)c(O)c2C1=O [Compound I-039]	240	17	–
C#CCN1C[C@H](C(c2ccccc2)c2ccccc2)n2cc(C(=O)O)c(=O)c(O)c2C1=O [Compound I-040]	173	44	–
O=C(O)c1cn2c(c(O)c1=O)C(=O)N(Cc1ccccc1)C[C@@H]2C(c1ccccc1)c1ccccc1 [Compound I-041]	180	6.2	–
CN1C(=O)c2c(O)c(=O)c(C(=O)O)cn2C[C@H]1C(c1ccccc1)c1ccccc1 [Compound I-042]	255	58	–
O=C(O)c1cn2c(c(O)c1=O)C(=O)N1CCCCN1C2C(c1ccccc1)c1ccccc1 (centres unmarked) [Compound I-043]	281	119	–
COCCCN1C[C@H](C(c2ccccc2)c2ccccc2)n2cc(C(=O)O)c(=O)c(O)c2C1=O [Compound I-044]	354	40	–
COCCN1C[C@H](C(c2ccccc2)c2ccccc2)n2cc(C(=O)O)c(=O)c(O)c2C1=O [Compound I-045]	–	–	EC50 [1]: 374 nM; EC50 [2]: 24 nM
CN1C[C@H](C(c2ccccc2)c2ccccc2)n2cc(C(=O)O)c(=O)c(O)c2C1=O [Compound I-046]	382	69	–
O=C(O)c1cn2c(c(O)c1=O)C(=O)N1CCCO[C@H]1[C@@H]2C(c1ccccc1)c1ccccc1 [Compound I-047]	414	372	–
O=C(O)c1cn2c(c(O)c1=O)C(=O)N(CCOc1ccc(F)cc1)C[C@@H]2C(c1ccccc1)c1ccccc1 [Compound I-048]	518	56	–
O=C(O)c1cn2c(c(O)c1=O)C(=O)N(CC(F)(F)F)C[C@@H]2C(c1ccccc1)c1ccccc1 [Compound I-049]	620	160	–
O=C(O)c1cn2c(c(O)c1=O)C(=O)N1CCCO[C@@H]1[C@@H]2C(c1ccccc1)c1ccccc1 [Compound I-050]	640	–	–

SMILES	EC50 [1, 3] [nM]	EC50 [2, 4] [nM]	further results
O=C(O)c1cn2c(c(O)c1=O)C(=O)N(Cc1ccccc1)CC2Cc1ccccc1 (centres unmarked) [Compound I-051]	739	722	–
O=C(O)c1cn2c(c(O)c1=O)C(=O)N(Cc1ccc(F)cc1)CN2Cc1ccc(-c2ccccc2)cc1 [Compound I-052]	751	–	–
O=C(O)c1cn2c(c(O)c1=O)C(=O)NC[C@@H]2C(c1ccccc1)c1ccccc1 [Compound I-053]	987	275	–
O=C(O)c1cn2c(c(O)c1=O)C(=O)N1CCCO[C@@H]1[C@@H]2Cc1ccccc1 [Compound I-054]	1620	1960	–
CC(C)N1CC(Cc2ccccc2)n2cc(C(=O)O)c(=O)c(O)c2C1=O (centres unmarked) [Compound I-055]	1870	–	–
COCCN1C[C@H](CC2CCCCC2)n2cc(C(=O)O)c(=O)c(O)c2C1=O [Compound I-056]	2030	–	–
COCCN1C[C@H](Cc2ccccc2)n2cc(C(=O)O)c(=O)c(O)c2C1=O [Compound I-057]	2180	225	–
O=C(O)c1cn2c(c(O)c1=O)C(=O)N[C@H](C(c1ccccc1)c1ccccc1)C2 [Compound I-059]	–	772	–
O=C(O)c1cn2c(c(O)c1=O)C(=O)N1CCCO[C@H]1[C@@H]2Cc1ccccc1 [Compound I-062]	–	2410	–
O=C(O)CN1C[C@H](C(c2ccccc2)c2ccccc2)n2cc(C(=O)O)c(=O)c(O)c2C1=O [Compound I-063]	–	280	–
CCOC(=O)c1cn2c(c(O)c1=O)C(=O)N(CCOC)C[C@@H]2C(c1ccccc1)c1ccccc1 [Compound I-066]	–	250	–
CCN1CN(C(c2ccccc2)c2ccccc2)n2c(C)c(C(=O)O)c(=O)c(O)c2C1=O [Compound I-072]	–	–	EC50 ([1]; read-out: EC50): 14 nM
CCN1CN(Cc2ccc(-c3ccccc3OC)s2)n2c(C)c(C(=O)O)c(=O)c(O)c2C1=O [Compound I-073]	–	–	EC50 ([1]; read-out: EC50): 65 nM
CC(C)N1CN(C2c3cc(F)c(F)cc3CCc3cc(F)c(F)cc32)n2cc(C(=O)O)c(=O)c(O)c2C1=O [Compound I-074]	50	48	–
Cc1cccc2c1CCc1c(C)cccc1C2N1CN(C(C)C)C(=O)c2c(O)c(=O)c(C(=O)O)cn21 [Compound I-075]	1.7	3.1	–
Cc1ccc2c(c1)CCc1cc(C)ccc1C2N1CN(C(C)C)C(=O)c2c(O)c(=O)c(C(=O)O)cn21 [Compound I-076]	34	13	–
CC(C)N1CN(C2c3cccc(F)c3CCc3c(F)cccc32)n2cc(C(=O)O)c(=O)c(O)c2C1=O [Compound I-077]	1.8	3.3	–
COCCN1CN(C2c3ccccc3CCc3ccccc32)n2cc(C(=O)O)c(=O)c(O)c2C1=O [Compound I-079]	5	5.3	–
CC(C)N1CN(Cc2ccccc2-c2ccccc2)n2cc(C(=O)O)c(=O)c(O)c2C1=O [Compound I-080]	437	499	–
CCN(CC)CCN1CN(C2c3ccccc3CCc3ccccc32)n2cc(C(=O)O)c(=O)c(O)c2C1=O [III-022]	–	> 1000	–
CC(C)N1CN(Cc2ccccc2)n2cc(C(=O)O)c(=O)c(O)c2C1=O [III-026]	–	> 1000	–
